Test results from ChEMBL document CHEMBL1201862, “PubChem BioAssay data set” (2004).
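Five concentrations, 48 hours, 96-well plates. The concentration for 50% growth inhibition is given as GI50.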 Calls of active or inactive are those of the source. Rule as the data show it: active = GI50 up to about 1.1 µM and inactive = higher.

Columns and labels:
Assay in all cases: NCI anticancer screen, dose series, 48 h
[1] = system: DU-145
[2] = system: HCC 2998
[3] = system: A498
[4] = system: MOLT-4
[5] = system: RXF 393
[6] = system: ACHN
[7] = system: OVCAR-4
[8] = system: HOP-62
[9] = system: TK-10
[10] = system: HCT-116
[11] = system: COLO 205
[12] = system: OVCAR-5
[13] = system: M14
[14] = system: Malme-3M
[15] = system: IGROV-1
[16] = system: CCRF-CEM
[17] = system: SR
[18] = system: SF-268
[19] = system: SK-MEL-2
[20] = system: CAKI-1

SMILES | GI50 [1] | GI50 [2] | GI50 [3] | GI50 [4] | GI50 [5] | GI50 [6] | GI50 [7] | GI50 [8] | GI50 [9] | GI50 [10] | GI50 [11] | GI50 [12] | GI50 [13] | GI50 [14] | GI50 [15] | GI50 [16] | GI50 [17] | GI50 [18] | GI50 [19] | GI50 [20]
Cc1nc2ccccc2c(=O)n1NC(=O)c1ccc([N+](=O)[O-])cc1 | > 100 µM (inactive) | > 100 µM (inactive) | 56.4 µM (inactive) | > 100 µM (inactive) | > 100 µM (inactive) | > 100 µM (inactive) | > 100 µM (inactive) | > 100 µM (inactive) | > 100 µM (inactive) | > 100 µM (inactive) | > 100 µM (inactive) | > 100 µM (inactive) | > 100 µM (inactive) | > 100 µM (inactive) | > 100 µM (inactive) | > 100 µM (inactive) | > 100 µM (inactive) | > 100 µM (inactive) | – | –
CC(=O)C1C(=O)C(C(C)=O)C2C3C=CC(C3)C12 (stereo unspecified) | > 100 µM (inactive) | > 100 µM (inactive) | > 100 µM (inactive) | > 100 µM (inactive) | > 100 µM (inactive) | > 100 µM (inactive) | > 100 µM (inactive) | > 100 µM (inactive) | > 100 µM (inactive) | > 100 µM (inactive) | > 100 µM (inactive) | > 100 µM (inactive) | – | > 100 µM (inactive) | > 100 µM (inactive) | > 100 µM (inactive) | > 100 µM (inactive) | > 100 µM (inactive) | > 100 µM (inactive) | > 100 µM (inactive)
Cc1ccccc1-n1c(=O)nc2n(-c3ccc(C(C)(C)C)cc3)c3ccccc3cc-2c1=O | 21.1 µM (inactive) | 18.1 µM (inactive) | 30.5 µM (inactive) | 23.8 µM (inactive) | 21.8 µM (inactive) | 32.5 µM (inactive) | 26.5 µM (inactive) | 20.2 µM (inactive) | 37.7 µM (inactive) | 15.5 µM (inactive) | 18.5 µM (inactive) | 25.9 µM (inactive) | 17.7 µM (inactive) | – | 24.3 µM (inactive) | 19.8 µM (inactive) | 30.1 µM (inactive) | 27.5 µM (inactive) | 16.7 µM (inactive) | 23.9 µM (inactive)
O=C(CN1CCOCC1)CC(O)(C(F)(F)F)C(F)(F)F | > 100 µM (inactive) | 67.3 µM (inactive) | > 100 µM (inactive) | 37.2 µM (inactive) | 20.1 µM (inactive) | 92.5 µM (inactive) | > 100 µM (inactive) | – | > 100 µM (inactive) | 44.9 µM (inactive) | > 100 µM (inactive) | > 100 µM (inactive) | > 100 µM (inactive) | > 100 µM (inactive) | 71.8 µM (inactive) | 56.4 µM (inactive) | 79.4 µM (inactive) | – | 97.3 µM (inactive) | 78.3 µM (inactive)
O=c1c2cc(-c3ccccc3)cnc2sn1-c1ccc(Oc2ccccc2)cc1 | 80.9 µM (inactive) | 73.5 µM (inactive) | 25.3 µM (inactive) | 49.2 µM (inactive) | 19.1 µM (inactive) | 66.8 µM (inactive) | 19.9 µM (inactive) | 22.1 µM (inactive) | – | 51.9 µM (inactive) | > 100 µM (inactive) | 65.2 µM (inactive) | 46.3 µM (inactive) | 92.5 µM (inactive) | 32.6 µM (inactive) | 27.3 µM (inactive) | > 100 µM (inactive) | 51.4 µM (inactive) | > 100 µM (inactive) | 61.9 µM (inactive)
ClCCN1CCO/C1=N/c1ccc2c(c1)CCCC2 | 15.7 µM (inactive) | 14.1 µM (inactive) | 6.92 µM (inactive) | 12.2 µM (inactive) | 8.39 µM (inactive) | 7.05 µM (inactive) | 6.1 µM (inactive) | 4.67 µM (inactive) | – | 13.4 µM (inactive) | 12.2 µM (inactive) | 17.3 µM (inactive) | 13.3 µM (inactive) | 7.19 µM (inactive) | 7.48 µM (inactive) | 11.3 µM (inactive) | 19.6 µM (inactive) | 14.7 µM (inactive) | 13.7 µM (inactive) | 16 µM (inactive)
CC(C)(C)C1=C(Br)C(F)(C(C)(C)C)OP1(=O)c1ccccc1 (stereo unspecified) | 18 µM (inactive) | 13.8 µM (inactive) | 24.8 µM (inactive) | – | 11.1 µM (inactive) | 16.5 µM (inactive) | 10.1 µM (inactive) | 16.3 µM (inactive) | 18.8 µM (inactive) | 16.7 µM (inactive) | 16 µM (inactive) | 20.2 µM (inactive) | 14.8 µM (inactive) | 17.9 µM (inactive) | 16 µM (inactive) | – | 11.9 µM (inactive) | 19.6 µM (inactive) | 20.6 µM (inactive) | 13 µM (inactive)
COC(=O)c1cc2c(c3c1CC(Cc1ccccc1)C3=O)CCC2 (stereo unspecified) | 61.4 µM (inactive) | 36.7 µM (inactive) | > 100 µM (inactive) | 53.6 µM (inactive) | 90.2 µM (inactive) | 84.3 µM (inactive) | 81.1 µM (inactive) | 99.3 µM (inactive) | > 100 µM (inactive) | > 100 µM (inactive) | > 100 µM (inactive) | > 100 µM (inactive) | 93.3 µM (inactive) | 54.1 µM (inactive) | 73.3 µM (inactive) | 36.5 µM (inactive) | > 100 µM (inactive) | 91.6 µM (inactive) | – | –
O=c1c2sc(=S)n(-c3ccc(F)cc3)c2ncn1/N=C/c1ccc(F)cc1F | 19 µM (inactive) | 31 µM (inactive) | 19.3 µM (inactive) | – | 15.8 µM (inactive) | 27.5 µM (inactive) | 18.9 µM (inactive) | 16.6 µM (inactive) | 18.1 µM (inactive) | 31 µM (inactive) | > 100 µM (inactive) | 32.2 µM (inactive) | 23.2 µM (inactive) | 18.7 µM (inactive) | 24.6 µM (inactive) | 63.7 µM (inactive) | 40.1 µM (inactive) | 18.7 µM (inactive) | 25.4 µM (inactive) | 14.4 µM (inactive)
COc1cc(C(=O)Oc2c(C#N)sc3c2c(=O)n(-c2ccccc2)c(=S)n3-c2ccccc2)cc(OC)c1OC | 19.8 µM (inactive) | 19.6 µM (inactive) | 4.1 µM (inactive) | 16.6 µM (inactive) | 8.99 µM (inactive) | 8.87 µM (inactive) | 26.4 µM (inactive) | 19.5 µM (inactive) | 27.7 µM (inactive) | 16.3 µM (inactive) | 15.8 µM (inactive) | 17.6 µM (inactive) | 12.8 µM (inactive) | 9.14 µM (inactive) | 19.1 µM (inactive) | 4.72 µM (inactive) | > 100 µM (inactive) | 14.3 µM (inactive) | – | 21.2 µM (inactive)
C1C2CC3CC1CC(Nc1nc(NC45CC6CC(CC(C6)C4)C5)nc(NC45CC6CC(CC(C6)C4)C5)n1)(C2)C3 | 42 µM (inactive) | 72.1 µM (inactive) | > 51.4 µM (inactive) | 57.3 µM (inactive) | 39 µM (inactive) | 51.2 µM (inactive) | > 83 µM (inactive) | > 36.5 µM (inactive) | > 60 µM (inactive) | > 51.9 µM (inactive) | 28.7 µM (inactive) | > 92.3 µM (inactive) | 44 µM (inactive) | > 100 µM (inactive) | – | > 92.9 µM (inactive) | 51.2 µM (inactive) | > 100 µM (inactive) | > 70 µM (inactive) | > 100 µM (inactive)
CS(=O)(=O)O[C@H]1[C@H](O)c2ccccc2[C@@H]1N=[N+]=[N-] | > 100 µM (inactive) | > 100 µM (inactive) | > 100 µM (inactive) | > 100 µM (inactive) | > 100 µM (inactive) | > 100 µM (inactive) | > 100 µM (inactive) | > 100 µM (inactive) | – | > 100 µM (inactive) | > 100 µM (inactive) | > 100 µM (inactive) | > 100 µM (inactive) | > 100 µM (inactive) | > 100 µM (inactive) | > 100 µM (inactive) | > 100 µM (inactive) | – | > 100 µM (inactive) | > 100 µM (inactive)
O=C1Nc2ccccc2/C1=N/Nc1ccccc1[N+](=O)[O-] | 33.6 µM (inactive) | 44.4 µM (inactive) | 32.8 µM (inactive) | 51.4 µM (inactive) | 35.6 µM (inactive) | 11.6 µM (inactive) | 25.5 µM (inactive) | 19.3 µM (inactive) | 69.2 µM (inactive) | 25.9 µM (inactive) | 69.7 µM (inactive) | 38.3 µM (inactive) | 87.5 µM (inactive) | – | 0.185 µM (active) | 91.6 µM (inactive) | 6.62 µM (inactive) | 10 µM (inactive) | > 100 µM (inactive) | 21.6 µM (inactive)
C=C(Cl)[C@](Cl)(CBr)CC[C@@H](Br)C(C)(C)Cl [HALOMON] | 1.1 µM (active) | 1.5 µM (inactive) | 1.97 µM (inactive) | 12.8 µM (inactive) | 0.121 µM (active) | 1.01 µM (active) | 1.46 µM (inactive) | 0.23 µM (active) | 1.81 µM (inactive) | 0.392 µM (active) | 1.84 µM (inactive) | 1.56 µM (inactive) | 15.7 µM (inactive) | 11.5 µM (inactive) | 6.67 µM (inactive) | 14.4 µM (inactive) | 7.21 µM (inactive) | 0.515 µM (active) | – | 0.337 µM (active)
